Tests used:
Experiment in all cases: biochemical
PFPK5(P.falciparum) = PFPK5(P.falciparum) (Plasmodium falciparum, UniProt P61075); conditions: read-out: CPT-1-70-1 (1μM) % control
PFCDPK1(P.falciparum) = PFCDPK1(P.falciparum) (Plasmodium falciparum, UniProt P62344); conditions: read-out: CPT-1-70-1 (1μM) % control
PKNB(M.tuberculosis) = PKNB(M.tuberculosis) (Mycobacterium tuberculosis, UniProt P9WI81); conditions: read-out: CPT-1-70-1 (1μM) % control
[1] = target: ABL1(E255K)-phosphorylated (Homo sapiens, UniProt P00519, E255K); conditions: read-out: CPT-1-70-1 (1μM) % control
Chain of ABL1(E255K)-phosphorylated (P00519 whole entry E255K): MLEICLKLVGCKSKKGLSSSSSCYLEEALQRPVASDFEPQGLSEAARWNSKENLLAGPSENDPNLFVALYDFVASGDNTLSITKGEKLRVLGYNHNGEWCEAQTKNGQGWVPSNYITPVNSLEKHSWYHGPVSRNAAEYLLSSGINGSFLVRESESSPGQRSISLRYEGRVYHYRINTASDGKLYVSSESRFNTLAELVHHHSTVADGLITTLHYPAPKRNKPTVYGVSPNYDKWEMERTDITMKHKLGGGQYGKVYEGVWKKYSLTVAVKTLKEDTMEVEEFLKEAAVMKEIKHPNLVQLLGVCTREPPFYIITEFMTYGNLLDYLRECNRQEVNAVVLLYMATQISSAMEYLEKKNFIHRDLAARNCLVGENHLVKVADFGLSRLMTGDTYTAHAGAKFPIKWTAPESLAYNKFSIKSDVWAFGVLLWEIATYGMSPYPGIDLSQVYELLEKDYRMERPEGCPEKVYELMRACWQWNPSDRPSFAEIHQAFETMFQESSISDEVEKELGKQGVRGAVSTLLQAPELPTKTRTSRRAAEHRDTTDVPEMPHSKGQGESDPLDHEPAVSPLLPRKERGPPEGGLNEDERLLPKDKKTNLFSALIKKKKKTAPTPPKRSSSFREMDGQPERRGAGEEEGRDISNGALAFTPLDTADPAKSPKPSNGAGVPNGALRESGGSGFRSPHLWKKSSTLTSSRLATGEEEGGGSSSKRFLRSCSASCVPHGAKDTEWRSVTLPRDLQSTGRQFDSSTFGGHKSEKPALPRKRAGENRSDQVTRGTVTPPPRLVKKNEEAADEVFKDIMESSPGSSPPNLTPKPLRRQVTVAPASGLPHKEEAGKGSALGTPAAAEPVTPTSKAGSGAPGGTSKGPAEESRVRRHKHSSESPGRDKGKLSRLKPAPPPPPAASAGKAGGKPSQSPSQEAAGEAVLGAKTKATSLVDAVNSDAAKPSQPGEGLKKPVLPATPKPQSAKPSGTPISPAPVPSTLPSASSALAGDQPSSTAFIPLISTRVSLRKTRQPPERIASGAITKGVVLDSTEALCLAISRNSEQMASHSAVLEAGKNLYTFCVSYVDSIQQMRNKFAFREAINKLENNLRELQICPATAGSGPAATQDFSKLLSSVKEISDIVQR

ERBB4 = ERBB4 (Homo sapiens, UniProt Q15303); conditions: read-out: CPT-1-70-1 (1uM) % control
HASPIN = HASPIN (Homo sapiens, UniProt Q8TF76); conditions: read-out: CPT-1-70-1 (1uM) % control
ERBB3 = ERBB3 (Homo sapiens, UniProt P21860); conditions: read-out: CPT-1-70-1 (1uM) % control
ALK(C1156Y) = ALK(C1156Y) (Homo sapiens, UniProt Q9UM73, C1156Y); conditions: read-out: CPT-1-70-1 (1uM) % control
ERK1 = ERK1 (Homo sapiens, UniProt P27361); conditions: read-out: CPT-1-70-1 (1uM) % control
EPHA2 = EPHA2 (Homo sapiens, UniProt P29317); conditions: read-out: CPT-1-70-1 (1uM) % control
EPHB4 = EPHB4 (Homo sapiens, UniProt P54760); conditions: read-out: CPT-1-70-1 (1uM) % control
ALK(L1196M) = ALK(L1196M) (Homo sapiens, UniProt Q9UM73, L1196M); conditions: read-out: CPT-1-70-1 (1uM) % control
ERBB2 = ERBB2 (Homo sapiens, UniProt P04626); conditions: read-out: CPT-1-70-1 (1uM) % control
EPHB1 = EPHB1 (Homo sapiens, UniProt P54762); conditions: read-out: CPT-1-70-1 (1uM) % control
Chain of EPHB1 (P54762 whole entry): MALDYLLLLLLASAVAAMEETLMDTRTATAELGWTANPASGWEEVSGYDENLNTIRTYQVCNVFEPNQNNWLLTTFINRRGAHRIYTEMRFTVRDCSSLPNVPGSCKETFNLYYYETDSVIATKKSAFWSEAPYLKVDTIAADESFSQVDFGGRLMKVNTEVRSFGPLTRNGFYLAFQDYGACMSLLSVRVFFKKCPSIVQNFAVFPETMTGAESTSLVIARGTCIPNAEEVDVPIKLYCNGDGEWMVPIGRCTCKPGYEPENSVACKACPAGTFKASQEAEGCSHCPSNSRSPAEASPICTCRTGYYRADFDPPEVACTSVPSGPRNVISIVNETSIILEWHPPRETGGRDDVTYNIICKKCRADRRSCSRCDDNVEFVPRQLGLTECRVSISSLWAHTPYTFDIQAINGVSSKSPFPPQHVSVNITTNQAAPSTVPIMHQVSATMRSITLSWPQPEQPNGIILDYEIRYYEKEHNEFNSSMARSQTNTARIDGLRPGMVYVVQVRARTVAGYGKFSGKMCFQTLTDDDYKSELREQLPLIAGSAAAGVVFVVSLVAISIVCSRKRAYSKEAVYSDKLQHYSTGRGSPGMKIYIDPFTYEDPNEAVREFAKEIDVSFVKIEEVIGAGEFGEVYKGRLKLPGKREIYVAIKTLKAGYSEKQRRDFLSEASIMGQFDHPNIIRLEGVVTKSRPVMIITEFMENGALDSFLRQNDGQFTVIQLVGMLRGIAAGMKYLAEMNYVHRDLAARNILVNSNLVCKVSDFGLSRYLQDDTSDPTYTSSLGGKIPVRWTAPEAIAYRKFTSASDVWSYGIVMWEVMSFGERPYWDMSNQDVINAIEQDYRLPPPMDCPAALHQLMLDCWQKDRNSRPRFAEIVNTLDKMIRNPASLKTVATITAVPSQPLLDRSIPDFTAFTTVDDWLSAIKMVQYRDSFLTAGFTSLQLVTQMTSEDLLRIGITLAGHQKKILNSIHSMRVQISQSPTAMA

EPHB2 = EPHB2 (Homo sapiens, UniProt P29323); conditions: read-out: CPT-1-70-1 (1uM) % control
Chain of EPHB2 (P29323 whole entry): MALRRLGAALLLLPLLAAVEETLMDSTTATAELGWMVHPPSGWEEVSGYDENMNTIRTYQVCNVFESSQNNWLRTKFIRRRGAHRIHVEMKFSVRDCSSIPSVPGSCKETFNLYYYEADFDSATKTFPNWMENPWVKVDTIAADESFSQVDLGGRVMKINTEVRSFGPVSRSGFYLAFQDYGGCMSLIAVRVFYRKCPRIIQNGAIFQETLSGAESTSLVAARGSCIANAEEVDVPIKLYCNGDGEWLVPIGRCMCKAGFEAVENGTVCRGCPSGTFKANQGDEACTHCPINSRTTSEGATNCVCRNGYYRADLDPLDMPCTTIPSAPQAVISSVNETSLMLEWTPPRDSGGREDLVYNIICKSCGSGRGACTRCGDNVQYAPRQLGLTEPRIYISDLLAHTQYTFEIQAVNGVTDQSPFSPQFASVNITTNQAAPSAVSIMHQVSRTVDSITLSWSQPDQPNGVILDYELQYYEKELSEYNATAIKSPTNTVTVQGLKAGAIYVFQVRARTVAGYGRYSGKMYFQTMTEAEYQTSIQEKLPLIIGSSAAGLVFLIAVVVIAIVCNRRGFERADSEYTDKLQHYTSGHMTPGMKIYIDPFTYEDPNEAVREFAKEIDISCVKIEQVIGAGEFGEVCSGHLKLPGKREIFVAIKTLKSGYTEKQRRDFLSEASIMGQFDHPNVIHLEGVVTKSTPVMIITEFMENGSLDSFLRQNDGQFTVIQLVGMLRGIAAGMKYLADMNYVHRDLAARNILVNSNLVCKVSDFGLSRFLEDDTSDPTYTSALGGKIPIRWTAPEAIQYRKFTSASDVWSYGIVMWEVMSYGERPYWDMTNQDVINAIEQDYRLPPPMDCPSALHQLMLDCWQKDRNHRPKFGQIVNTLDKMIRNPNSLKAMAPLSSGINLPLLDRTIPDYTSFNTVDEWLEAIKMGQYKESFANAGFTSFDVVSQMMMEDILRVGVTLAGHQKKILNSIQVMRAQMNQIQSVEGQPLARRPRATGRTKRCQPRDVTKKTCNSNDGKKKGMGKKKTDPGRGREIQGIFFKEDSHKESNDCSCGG

EGFR(T790M) = EGFR(T790M) (Homo sapiens, UniProt P00533, T790M); conditions: read-out: CPT-1-70-1 (1uM) % control
EPHA7 = EPHA7 (Homo sapiens, UniProt Q15375); conditions: read-out: CPT-1-70-1 (1uM) % control
EPHA4 = EPHA4 (Homo sapiens, UniProt P54764); conditions: read-out: CPT-1-70-1 (1uM) % control
EPHA1 = EPHA1 (Homo sapiens, UniProt P21709); conditions: read-out: CPT-1-70-1 (1uM) % control
ERK2 = ERK2 (Homo sapiens, UniProt P28482); conditions: read-out: CPT-1-70-1 (1uM) % control
EPHB3 = EPHB3 (Homo sapiens, UniProt P54753); conditions: read-out: CPT-1-70-1 (1uM) % control
ERK8 = ERK8 (Homo sapiens, UniProt Q8TD08); conditions: read-out: CPT-1-70-1 (1uM) % control
EPHA5 = EPHA5 (Homo sapiens, UniProt P54756); conditions: read-out: CPT-1-70-1 (1uM) % control
EPHB6 = EPHB6 (Homo sapiens, UniProt O15197); conditions: read-out: CPT-1-70-1 (1uM) % control
ERK3 = ERK3 (Homo sapiens, UniProt Q16659); conditions: read-out: CPT-1-70-1 (1uM) % control
Chain of ERK3 (Q16659 whole entry): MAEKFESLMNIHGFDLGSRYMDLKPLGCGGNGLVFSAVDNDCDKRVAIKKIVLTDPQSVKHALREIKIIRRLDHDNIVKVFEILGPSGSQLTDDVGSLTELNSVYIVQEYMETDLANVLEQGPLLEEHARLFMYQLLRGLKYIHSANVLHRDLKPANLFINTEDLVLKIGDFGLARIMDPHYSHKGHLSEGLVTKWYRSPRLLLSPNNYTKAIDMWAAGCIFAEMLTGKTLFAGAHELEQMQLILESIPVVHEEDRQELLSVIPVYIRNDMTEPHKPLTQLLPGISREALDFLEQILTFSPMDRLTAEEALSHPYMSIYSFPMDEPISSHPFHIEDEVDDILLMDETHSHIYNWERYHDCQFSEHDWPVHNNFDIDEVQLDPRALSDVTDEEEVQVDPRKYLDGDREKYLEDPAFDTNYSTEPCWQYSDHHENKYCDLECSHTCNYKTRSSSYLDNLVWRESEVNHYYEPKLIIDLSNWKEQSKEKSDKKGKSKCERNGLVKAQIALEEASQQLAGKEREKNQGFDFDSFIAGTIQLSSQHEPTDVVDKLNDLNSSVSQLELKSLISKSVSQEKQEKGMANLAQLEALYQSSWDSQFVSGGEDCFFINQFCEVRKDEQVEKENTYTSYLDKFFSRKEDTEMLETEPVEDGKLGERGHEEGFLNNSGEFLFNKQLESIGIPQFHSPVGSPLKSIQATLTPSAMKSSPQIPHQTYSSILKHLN

EPHA8 = EPHA8 (Homo sapiens, UniProt P29322); conditions: read-out: CPT-1-70-1 (1uM) % control
Chain of EPHA8 (P29322 whole entry): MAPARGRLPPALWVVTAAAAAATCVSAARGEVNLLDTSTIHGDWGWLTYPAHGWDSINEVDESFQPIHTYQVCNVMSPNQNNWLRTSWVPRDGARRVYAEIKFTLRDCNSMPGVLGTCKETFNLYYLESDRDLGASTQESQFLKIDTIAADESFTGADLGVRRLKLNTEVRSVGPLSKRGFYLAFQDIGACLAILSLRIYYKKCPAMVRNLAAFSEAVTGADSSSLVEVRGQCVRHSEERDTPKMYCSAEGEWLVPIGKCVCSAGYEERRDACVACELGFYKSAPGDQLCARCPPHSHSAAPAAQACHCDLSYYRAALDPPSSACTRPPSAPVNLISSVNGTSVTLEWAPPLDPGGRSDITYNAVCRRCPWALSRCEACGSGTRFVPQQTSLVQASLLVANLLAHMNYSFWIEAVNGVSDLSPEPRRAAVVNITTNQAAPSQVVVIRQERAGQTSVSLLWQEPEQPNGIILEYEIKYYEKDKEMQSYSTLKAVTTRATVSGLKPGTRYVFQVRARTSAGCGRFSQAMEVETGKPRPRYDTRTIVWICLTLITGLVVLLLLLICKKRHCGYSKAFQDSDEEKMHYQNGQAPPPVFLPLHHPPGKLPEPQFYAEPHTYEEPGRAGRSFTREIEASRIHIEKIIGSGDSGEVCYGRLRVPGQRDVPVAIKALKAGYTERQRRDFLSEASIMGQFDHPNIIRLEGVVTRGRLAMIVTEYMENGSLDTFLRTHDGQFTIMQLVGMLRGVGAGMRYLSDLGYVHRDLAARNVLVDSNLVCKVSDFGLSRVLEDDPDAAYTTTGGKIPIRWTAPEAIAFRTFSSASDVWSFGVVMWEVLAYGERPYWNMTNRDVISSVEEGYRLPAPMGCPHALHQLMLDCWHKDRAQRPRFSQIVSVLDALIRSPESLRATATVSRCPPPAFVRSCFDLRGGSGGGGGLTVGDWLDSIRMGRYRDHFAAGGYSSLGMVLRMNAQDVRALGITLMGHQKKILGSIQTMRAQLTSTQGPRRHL

ERK5 = ERK5 (Homo sapiens, UniProt Q13164); conditions: read-out: CPT-1-70-1 (1uM) % control
BUB1 = BUB1 (Homo sapiens, UniProt O43683); conditions: read-out: CPT-1-70-1 (1uM) % control
ERK4 = ERK4 (Homo sapiens, UniProt P31152); conditions: read-out: CPT-1-70-1 (1uM) % control

CN1CCN(c2ccc(Nc3nc(Oc4ccc(NC(=O)CCl)cc4)c4cc[nH]c4n3)cc2)CC1 [CPT1-70-1]
remaining activity at 1 µM (PFPK5(P.falciparum)): 100% | remaining activity at 1 µM (PFCDPK1(P.falciparum)): 100% | remaining activity at 1 µM (PKNB(M.tuberculosis)): 58% | remaining activity at 1 µM [1]: 90% | remaining activity at 1 µM (ERBB4): 4.6% | remaining activity at 1 µM (HASPIN): 100% | remaining activity at 1 µM (ERBB3): 53% | remaining activity at 1 µM (ALK(C1156Y)): 52% | remaining activity at 1 µM (ERK1): 100% | remaining activity at 1 µM (EPHA2): 96% | remaining activity at 1 µM (EPHB4): 100% | remaining activity at 1 µM (ALK(L1196M)): 100% | remaining activity at 1 µM (ERBB2): 57% | remaining activity at 1 µM (EPHB1): 84% | remaining activity at 1 µM (EPHB2): 100% | remaining activity at 1 µM (EGFR(T790M)): 0.8% | remaining activity at 1 µM (EPHA7): 62% | remaining activity at 1 µM (EPHA4): 94% | remaining activity at 1 µM (EPHA1): 79% | remaining activity at 1 µM (ERK2): 100% | remaining activity at 1 µM (EPHB3): 100% | remaining activity at 1 µM (ERK8): 86% | remaining activity at 1 µM (EPHA5): 100% | remaining activity at 1 µM (EPHB6): 44% | remaining activity at 1 µM (ERK3): 1% | remaining activity at 1 µM (EPHA8): 53% | remaining activity at 1 µM (ERK5): 87% | remaining activity at 1 µM (BUB1): 85% | remaining activity at 1 µM (ERK4): 96%
